# Test results reported in patent US12091670B2, “Bacteria-based protein delivery” (Universitaet Basel, priority 2014, dated 2024).
# Entries after “also recorded” stand apart in the source; their conditions may differ.
# B1: SteAi_2o fused murine tBID: murine tBID fused to the 20 N-terminal amino acids of SteA, delivered by S. enterica (protein)
# chain: MPYTSVSTYARALSGNKLPHGTGSQASRSFNQGRIEPDSESQEEIIHNIARHLAQIGDEMDHNIQPTLVRQLAAQFMNGSLSEEDKRNCLAKALDEVKTAFPRDMENDKAMLIMTMLLAKKVASHAPSLLRDVFHTTVNFINQNLFSYVRNLVRNEMD
# modifications: SteA1-20 - S. enterica codon optimized murine t-BID
# notes: murine tBID fused to the 20 N-terminal amino acids of SteA, delivered by S. enterica
# Assays:
# D2A1 cells = assay type: cell-based
# B16F10 cells = assay type: cell-based
# 4T1 cells = assay type: cell-based
# HeLa cells [1] = assay type: cell-based, human
# cAMP = assay type: cell-based, human
# HeLa cells [2] = test: Apoptosis induction in HeLa cells by S. enterica aroA delivered murine tBid fusions (cleaved Caspase 3 p17 western blot); assay type: cell-based, human; settings: 4 h, MOI of 100
# HeLa cells [3] = test: Removal of YopE1-138 appendage by T3SS-delivered TEV protease, Western blot of digitonin lysed HeLa cells; assay type: cell-based, human; settings: coinfection, 2 h
# Text: HeLa cells in 6-well plates were infected at an MOI of 100 as described above. In case of coinfection with the TEV protease translocating Y. enterocolitica strain, the OD600 of the strains was set and the two bacterial suspensions were mixed in a tube at a ratio of 1:1 (if not otherwise indicated) before addition to the cells. At the end of the infection, the cells were washed twice with ice-cold PBS and collected by scraping in a small volume of ice-cold PBS. After centrifugation (16 000 rcf, 5 min, 4° C.) the pellet was dissolved in 0.002% digitonin supplemented with a protease inhibitor cocktail (Roche complete, Roche). The dissolved pellets were incubated for 5 minutes on ice and then centrifuged (16 000 rcf, 25 min, 4° C.). Supernatants were collected and analyzed for total protein content by […] (Pierce) before SDS PAGE and Western blotting using an anti-Myc (Santa Cruz, 9E1 1) or anti-Ink4C (Cell Signaling) antibody.
# HeLa cells [4] = assay type: cell-based, human; remark: listed apart in the source
# p38 = assay type: cell-based, human
# Akt = assay type: cell-based, human
# [5] = system: actin network in HeLa cells; assay type: cell-based, human
# zebrafish embryos = settings: in vivo
# [6] = S. enterica aroA grown under SPI-1 T3SS inducing conditions
# [7] = S. enterica aroA grown under SPI-2 T3SS inducing conditions
molecule,measurement,setting,value
"BH3 domain of murine BID: YopE1-138 fusion with BH3 domain of murine tBID, codon optimized for Y. enterocolitica",cell death / apoptosis induction,D2A1 cells,induce massive cell death; also recorded: induces massive apoptosis
same,cell death / apoptosis induction,B16F10 cells,induce massive cell death; also recorded: induces massive apoptosis
same,cell death / apoptosis induction,4T1 cells,induce massive cell death; also recorded: induces massive apoptosis
same,cell death / apoptosis induction,HeLa cells [1],induce massive cell death; also recorded: induces massive apoptosis
BepA: YopE1-138 fusion with full length type IV effector BepA from B. henselae,cAMP production,cAMP,triggered cAMP production in expected amounts
BepAE30 5-end: YopE1-138 fusion with BepA E305-end containing the C-terminal Bid domain,cAMP production,cAMP,triggered cAMP production in expected amounts
BepG: YopE1-138 fusion with the Bid domain of the B. henselae effector BepG,cAMP production,cAMP,failed to induce cAMP
"Murine tBID fused to full length SteA: murine tBID fused to full length SteA, delivered by S. enterica",apoptosis induction (CASP3 p17 production),HeLa cells [2]; [6],lead to apoptosis induction in HeLa cells
same,apoptosis induction (CASP3 p17 production),HeLa cells [2]; [7],lead to apoptosis induction in HeLa cells
"TEV protease: TEV protease (S219V variant) fused to YopE1-138, delivered via T3SS",function of TEV protease delivered via T3SS,HeLa cells [3],functional
YopEi_i38-BID: YopE1-138 fusion with human BH3 interacting-domain death agonist (BID),apoptosis / cell death induction,HeLa cells [4],failed to induce apoptosis
YopEi_i38-OspF: YopE1-138 fusion with S. flexneri type III effector OspF,TNFa-induced p38 phosphorylation,p38,TNFa-induced phosphorylation was abolished
YopEi_i38-SopB: YopE1-138 fusion with Salmonella type III effector SopB,phosphorylation of Akt at T308 and S473,Akt,induced a strong phosphorylation of Akt at T308 and 5473
YopEi_i38-SopE-Myc: YopE1-138 fusion with SopE and MycHis tag,changes in the actin network / F-actin rearrangements,[5],triggered massive F-actin rearrangements
YopEi_i38-SopE: YopE1-138 fusion with SopE from Salmonella enterica,phosphorylation of Akt at T308 and S473,Akt,had no effect on Akt
same,changes in the actin network / F-actin rearrangements,[5],induced dramatic changes in the actin network
same,time of first changes in the actin cytoskeleton,[5],2 min p.i.
"YopEi_i38-SptP: YopE1-138 fusion with SptP, GTPase activating protein for Cdc42",effect of co-infection on YopE1-138-SopE-Myc triggered F-actin rearrangements,[5],abolished this effect in a dose dependent manner
YopEi_i38-z-BIM: YopE1-138 fusion with zebrafish apoptosis inducer BIM,automated image analysis of Caspase 3 p17 staining near bacteria,zebrafish embryos,induce apoptosis in nearby cells by far more than control bacteria do
same,cleaved CASP3 (apoptosis) in regions surrounding the bacteria,zebrafish embryos,strong increase in presence of cleaved CASP3; also recorded: induces apoptosis in zebrafish embryos
same,apoptosis / cell death induction,HeLa cells [4],showed clear signs of cell death
"murine BAX: YopE1-138 fusion with BH3 domain of murine BAX, codon optimized for Y. enterocolitica",cell death / apoptosis induction,D2A1 cells,induce massive cell death; also recorded: induces massive apoptosis
same,cell death / apoptosis induction,B16F10 cells,induce massive cell death; also recorded: induces massive apoptosis
same,cell death / apoptosis induction,4T1 cells,induce massive cell death; also recorded: induces massive apoptosis
same,cell death / apoptosis induction,HeLa cells [1],induce massive cell death; also recorded: induces massive apoptosis
murine tBID: YopE1-138 fusion with murine tBID codon optimized for Y. enterocolitica,cell death / apoptosis induction,D2A1 cells,triggered cell death; also recorded: induces massive apoptosis
same,cell death / apoptosis induction,B16F10 cells,triggered cell death; also recorded: induces massive apoptosis
same,cell death / apoptosis induction,4T1 cells,triggered cell death; also recorded: induces massive apoptosis
same,cell death / apoptosis induction,HeLa cells [1],triggered cell death; also recorded: induces massive apoptosis
B1,apoptosis induction (CASP3 p17 production),HeLa cells [2]; [6],failed to induce apoptosis
same,apoptosis induction (CASP3 p17 production),HeLa cells [2]; [7],failed to induce apoptosis
